One assay concerns E. coli ATCC 25922. As to the kind of experiment: Time kill study (viability count). The following applies: for Bacterial count: Compound of Formula (III) 2 μg/ml, alone or combined; for Bactericidal action (in words): E. coli ATCC 25922, standalone or combination, Tables 3 to 5. It counts as cell-based. How it is done:
(§1) The antibacterial effectiveness of various antibacterial agents in presence of a compound of Formula (III) was investigated and the results are detailed below. In a typical study, overnight cultures in Trypticase soya broth (TSB) were brought to log phase by 1 in 10 dilution in fresh cation adjusted Mueller Hinton Broth (MHB) and incubation for 2.5 hours at 35° C. in orbital shaker. Log phase cultures were diluted to desired inoculums in flasks with MHB, containing various drug concentrations. Flasks were incubated at 35° C. in orbital shaker with rotational speed of 125 rpm. Viability count was determined by 1 in 10 serial dilutions of samples in normal saline and surface spreading of 10 μl of dilutions in duplicate on Trypticase soya agar plates. Plates were incubated for 24 hours at 35° C. and colonies were enumerated to determine the colony forming units (CFU) per ml volume.

The subject of the next assay is P. aeruginosa PAO1. As to the kind of experiment: Time kill study (viability count). It counts as cell-based. The following applies: for Bacterial count: Compound of Formula (III) 4 μg/ml, alone or combined; for Bactericidal action (in words): P. aeruginosa PAO1, standalone or combination, Tables 6 and 7. The procedure: as §1

As to `C[C@H]1[C@H](NC(=O)/C(=N\OC(C)(C)C(=O)O)c2csc(N)n2)C(=O)N1S(=O)(=O)O` [Aztreonam], the Bacterial count is on record as 7.47 log (CFU/ml) in the assay with E. coli ATCC 25922 (0 hour, Aztreonam 1 μg/ml); 7.48 log (CFU/ml) in the assay with E. coli ATCC 25922 (2 hours, Aztreonam 1 μg/ml); 7.47 log (CFU/ml) in the assay with E. coli ATCC 25922 (4 hours, Aztreonam 1 μg/ml); 7.48 log (CFU/ml) with E. coli ATCC 25922 (6 hours, Aztreonam 1 μg/ml); 7.5 log (CFU/ml) with E. coli ATCC 25922 (24 hours, Aztreonam 1 μg/ml); 5.74 log (CFU/ml) in the assay on P. aeruginosa PAO1 (0 hour, Aztreonam 2 μg/ml). Moreover, the Bacterial count is recorded as 6.3 log (CFU/ml) with P. aeruginosa PAO1 (2 hours, Aztreonam 2 μg/ml); 6.65 log (CFU/ml) in the assay with P. aeruginosa PAO1 (4 hours, Aztreonam 2 μg/ml); 6.54 log (CFU/ml) with P. aeruginosa PAO1 (6 hours, Aztreonam 2 μg/ml); 7.15 log (CFU/ml) in the assay on P. aeruginosa PAO1 (24 hours, Aztreonam 2 μg/ml). Also, the “Bactericidal action (in words)” value in the assay with E. coli ATCC 25922 and in the assay on P. aeruginosa PAO1 was “did not exhibit any bactericidal action” each time.
For the compound `NC(=O)c1cc[n+](CC2=C(C(=O)O)N3C(=O)[C@@H](NC(=O)[C@@H](c4ccccc4)S(=O)(=O)[O-])[C@H]3SC2)cc1` [Cefsulodin], the Bacterial count is 7.47 log (CFU/ml) in the assay on E. coli ATCC 25922 (0 hour, Cefsulodin 16 μg/ml); 8.4 log (CFU/ml) in the assay with E. coli ATCC 25922 (2 hours, Cefsulodin 16 μg/ml); 8.8 log (CFU/ml) in the assay on E. coli ATCC 25922 (4 hours, Cefsulodin 16 μg/ml); 8.3 log (CFU/ml) in the assay on E. coli ATCC 25922 (6 hours, Cefsulodin 16 μg/ml); 9 log (CFU/ml) in the assay with E. coli ATCC 25922 (24 hours, Cefsulodin 16 μg/ml); 6.81 log (CFU/ml) in the assay on P. aeruginosa PAO1 (0 hour, Cefsulodin 2 μg/ml). Also, the Bacterial count in the assay with P. aeruginosa PAO1 (2 hours, Cefsulodin 2 μg/ml) is 6.48 log (CFU/ml); in the assay on P. aeruginosa PAO1 (4 hours, Cefsulodin 2 μg/ml) it was 5.07 log (CFU/ml); with P. aeruginosa PAO1 (6 hours, Cefsulodin 2 μg/ml), 4.74 log (CFU/ml); in the assay with P. aeruginosa PAO1 (24 hours, Cefsulodin 2 μg/ml), 9 log (CFU/ml). Besides, the “Bactericidal action (in words)” value is “did not exhibit any bactericidal action” in the assay on E. coli ATCC 25922 and “failed to cause consistent killing till 24 hour” with P. aeruginosa PAO1.
On to `CO[C@@]1(NC(=O)Cc2cccs2)C(=O)N2C(C(=O)O)=C(COC(N)=O)CS[C@@H]21` [Cefoxitin], for which the Bacterial count in the assay on E. coli ATCC 25922 (0 hour, Cefoxitin 1 μg/ml) was 7.47 log (CFU/ml); in the assay with E. coli ATCC 25922 (2 hours, Cefoxitin 1 μg/ml), 7.11 log (CFU/ml); in the assay with E. coli ATCC 25922 (4 hours, Cefoxitin 1 μg/ml) it was 6.7 log (CFU/ml); with E. coli ATCC 25922 (6 hours, Cefoxitin 1 μg/ml), 6.54 log (CFU/ml); in the assay on E. coli ATCC 25922 (24 hours, Cefoxitin 1 μg/ml) it was 9 log (CFU/ml). In addition, in the assay with E. coli ATCC 25922, the “Bactericidal action (in words)” value is reported as “did not exhibit any significant bactericidal action”.
